# Measurements published in patent US20030170643A1, “Regulation of apoB treatment and drug screening for cardiovascular and metabolic disorders or syndromes” (priority 1999, published 2003).
# System: rat hepatoma cells
# Experiment: TBARS assay of ROS in cell lysates of rat hepatoma cells
# Format: cell-based
# Settings: fatty acid alone
# Protocol: FIG. 13 illustrates that either an iron chelator (DFX) or lipid antioxidants block DHA-stimulated apoB degradation and reactive oxygen species (ROS) production. Rat hepatoma cells were plated in culture wells and pre-incubated in media containing either DHA or DHA with one of the indicated compounds. Radiolabeled methionine/cysteine was added to the culture media for 15 minutes, after which time, the culture media were replaced by fresh media identical in composition except that radiolabeled methionine/cysteine were replaced by unlabeled methionone/cysteine. The recovery of labeled apoB100 ([^35S]-apoB100) from the media and cell lysate was determined at the indicated time points (with time 0 being the point when the fresh media were applied to the cells) by immunoprecipitating apoB species with a rabbit polyclonal antibody to rat apoB, resuspending the immunoprecipitates, combining aliquots from cell lysate and media samples from each well, resolving the protein contents of the combined immunoprecipitates by SDS-polyacrylamide gel electrophoresis (SDS-PAGE), and exposing the resultant gels to X-ray film in order to visualize the labeled apoB bands. In panel A are shown representative signals for radiolabeled apoB100 in each of the treatment conditions. […] For each treatment, there were at least 2 wells/treatment for each time point and the entire experiment repeated. The signal intensities of the apoB100 bands were quantified by densitometry and the mean relative recoveries (the % of the 15 minute, or initial, value still remaining at 120 minutes) ±SEM are shown in panel B. Note that the visual impressions observable in panel A are confirmed by the quantitative analysis; i.e., there is a substantial increase in labeled apoB100 recovery with any of the co-treatments. In panel C, the ROS content of the cell lysates at the end of the experiment was measured by the standard TBARS assay (Stocks et al., 1974, Clin Sci Mol Med 47,215-222). Note that compared to control (BSA), DHA induced a large increase in TBARS, as expected because of its high content on unsaturated bonds. […] FIG. 15 illustrates that AA stimulates apoB100 degradation and increases ROS. […] Note in the upper panel that the combined recovery (from two separate wells/time point) of radiolabeled apoB100 decreased from 15 to 120 minutes, indicating significant apoB100 degradation had occurred in the presence of AA. […] In addition to being a source of ROS, AA can also be converted by cyclooxygenase (COX) to bioactive prostaglandin compounds. We therefore repeated the experiment with AA but with co-treatment by the COX inhibitor aspirin.
compound,measurement,value
"CCCCCCCC/C=C\CCCCCCCC(=O)O [OA, oleic acid]","reactive oxygen species (ROS), TBARS assay, fatty acid compared to BSA",does not increase
